# Activity calls are given as the source filed them. The rule behind the calls is not given here.
# What was measured:
# ES-2 [1] = assay: Inhibition of erastin-induced ferroptosis in human ES2 cells assessed as increase in cell viability incubated for 48 hrs in presence of erastin by MTT assay; type: functional, cell-based; details: ES-2, 48 h
# LX-2 = assay: Inhibition of erastin-induced ferroptosis in human LX2 cells assessed as increase in cell viability incubated for 48 hrs in presence of erastin by MTT assay; type: functional, cell-based; details: LX-2, 48 h
# ES-2 [2] = assay: Inhibition of staurosporine-induced apoptosis in human ES2 cells assessed as cell viability at 10 uM incubated for 24 hrs in presence of staurosporine by MTT assay; type: functional, cell-based
# HT-29 = assay: Inhibition of TNF-alpha/Smac-mimetic/Z-VAD-FMK-induced necrosis in human HT-29 cells assessed as cell viability at 10 uM incubated for 24 hrs in presence of TNF-alpha/Smac-mimetic/Z-VAD-FMK by MTT assay; type: functional, cell-based
# THP-1 = assay: Inhibition of LPS/nigericin-stimulated pyroptosis in PMA-differentiated human THP-1 cells assessed as cell viability at 10 uM treated with LPS for 4 hrs followed by incubation with compound and nigericin for 30 mins by MTT assay; type: functional, cell-based
# ES-2 [3] = assay: Inhibition of erastin-induced ferroptosis in human ES2 cells assessed as increase in intracellular GSH content at 1 uM measured after 8 to 10 hrs; type: functional, cell-based; details: time 8-10 hrs
# [4] = Metal chelating activity assessed as compound-Fe2+ complex formation at 10 uM incubated for 5 mins by ferrozine-based colorimetric assay
# [5] = Antioxidant activity assessed as DPPH radical scavenging activity at 1 to 50 uM incubated for 10 mins by DPPH assay; type: functional; details: dose 1-50 µM
# ES-2 [6] = assay: Inhibition of erastin-induced ferroptosis in human ES2 cells assessed as inhibition of lipid peroxidation by measuring decrease in MDA content at 0.01 uM measured after 8 to 10 hrs; type: functional, cell-based; details: time 8-10 hrs
# ES-2 [7] = assay: Inhibition of erastin-induced ferroptosis in human ES2 cells assessed as increase in intracellular GSH content at 0.01 to 1 uM measured after 8 to 10 hrs; type: functional, cell-based; details: dose 0.01-1 µM, time 8-10 hrs
# ES-2 [8] = assay: Inhibition of erastin-induced ferroptosis in human ES2 cells assessed as reduction in cytosolic ROS accumulation at 0.01 to 1 uM measured after 8 to 10 hrs by DCFH-DA staining based fluorescence analysis; type: functional, cell-based; details: dose 0.01-1 µM, time 8-10 hrs
# ES-2 [9] = assay: Inhibition of erastin-induced ferroptosis in human ES2 cells assessed as GPX4 protein expression at 0.01 to 1 uM incubated for 8 to 10 hrs by western blot analysis; type: functional, cell-based; details: dose 0.01-1 µM, time 8-10 hrs
# ES-2 [10] = assay: Inhibition of erastin-induced ferroptosis in human ES2 cells assessed as xCT protein expression at 0.01 to 1 uM incubated for 8 to 10 hrs by western blot analysis; type: functional, cell-based; details: dose 0.01-1 µM, time 8-10 hrs
# ES-2 [11] = assay: Inhibition of erastin-induced ferroptosis in human ES2 cells assessed as NRF2 protein expression at 0.01 to 1 uM incubated for 8 to 10 hrs by western blot analysis; type: functional, cell-based; details: dose 0.01-1 µM, time 8-10 hrs
# ES-2 [12] = assay: Inhibition of erastin-induced ferroptosis in human ES2 cells assessed as FACL4 protein expression at 0.01 to 1 uM incubated for 8 to 10 hrs by western blot analysis; type: functional, cell-based; details: dose 0.01-1 µM, time 8-10 hrs
# ES-2 [13] = assay: Inhibition of erastin-induced ferroptosis in human ES2 cells assessed as ERK protein expression at 0.01 to 1 uM incubated for 8 to 10 hrs by western blot analysis; type: functional, cell-based; details: dose 0.01-1 µM, time 8-10 hrs
# ES2 = assay: Effect on ERK1/2 phoshorylation in erastin-stimulated human ES2 cells at 0.01 to 1 uM incubated for 8 to 10 hrs by western blot analysis; type: cell-based; details: dose 0.01-1 µM, time 8-10 hrs
# ES-2 [14] = assay: Inhibition of erastin-induced ferroptosis in human ES2 cells assessed as TFR1 protein expression at 0.01 to 1 uM incubated for 8 to 10 hrs by western blot analysis; type: functional, cell-based; details: dose 0.01-1 µM, time 8-10 hrs
# ES-2 [15] = assay: Inhibition of erastin-induced ferroptosis in human ES2 cells assessed as FPN protein expression at 0.01 to 1 uM incubated for 8 to 10 hrs by western blot analysis; type: functional, cell-based; details: dose 0.01-1 µM, time 8-10 hrs
# ES-2 [16] = assay: Inhibition of erastin-induced ferroptosis in human ES2 cells assessed as DMT1 protein expression at 0.01 to 1 uM incubated for 8 to 10 hrs by western blot analysis; type: functional, cell-based; details: dose 0.01-1 µM, time 8-10 hrs
# ES-2 [17] = assay: Inhibition of ferritinophagy in erastin-stimulated human ES2 cells assessed as increase in NCOA4 protein expression incubated for 8 to 10 hrs by western blot analysis; type: functional, cell-based; details: dose 0.01-1 µM, time 8-10 hrs
# ES-2 [18] = assay: Inhibition of ferritinophagy in erastin-stimulated human ES2 cells assessed as increase in ferritin protein expression incubated for 8 to 10 hrs by western blot analysis; type: functional, cell-based; details: dose 0.01-1 µM, time 8-10 hrs
# ES-2 [19] = assay: Inhibition of ferritinophagy in erastin-stimulated human ES2 cells assessed as increase in FTH1 gene expression at 0.01 to 1 uM by qRT-PCR analysis; type: functional, cell-based; details: dose 0.01-1 µM
# ES-2 [20] = assay: Inhibition of ferritinophagy in erastin-stimulated human ES2 cells assessed as increase in FTL gene expression at 0.01 to 1 uM by qRT-PCR analysis; type: functional, cell-based; details: dose 0.01-1 µM
# ES-2 [21] = assay: Inhibition of ferritinophagy in erastin-stimulated human ES2 cells assessed as increase in NCOA4 gene expression at 0.01 to 1 uM by qRT-PCR analysis; type: functional, cell-based; details: dose 0.01-1 µM
# Mus musculus [22] = assay: Protection against APAP-induced acute liver injury C57BL/6 mouse model assessed as decrease in liver tissue damage at 3 mg/kg, ip administered 2 hrs prior to APAP injection and measured after 6 hrs by Hematoxylin-Eosin staining based analysis; type: functional, organism-based; details: time 8.0 hrs
# Mus musculus [23] = assay: Protection against APAP-induced acute liver injury C57BL/6 mouse model assessed as decrease in serum AST content at 3 mg/kg, ip administered 2 hrs prior to APAP injection and measured after 6 hrs; type: functional, organism-based; details: time 8.0 hrs
# Mus musculus [24] = assay: Protection against APAP-induced acute liver injury C57BL/6 mouse model assessed as decrease in serum ALT content at 3 mg/kg, ip administered 2 hrs prior to APAP injection and measured after 6 hrs; type: functional, organism-based; details: time 8.0 hrs
# Mus musculus [25] = assay: Protection against APAP-induced acute liver injury C57BL/6 mouse model assessed as decrease in liver MDA content at 3 mg/kg, ip administered 2 hrs prior to APAP injection and measured after 6 hrs; type: functional, organism-based; details: time 8.0 hrs
# [26] = Potency index, ratio of ferrostatin-1 EC50 to test compound EC50 for inhibition of erastin-induced ferroptosis in human ES2 cells; type: functional, ES-2
smiles,measurement,setting,value
Fc1ccc(-c2noc(-c3cccc4nc5ccccc5nc34)n2)cc1F,EC50,ES-2 [1],9 nM
same,EC50,LX-2,11 nM
FC(F)(F)c1cccc(-c2noc(-c3cccc4nc5ccccc5nc34)n2)c1,EC50,ES-2 [1],2 nM
same,EC50,LX-2,13 nM
CC(C)(C)c1noc(-c2cccc3nc4ccccc4nc23)n1,EC50,ES-2 [1],604 nM
Cc1ccccc1-c1noc(-c2cccc3nc4ccccc4nc23)n1,EC50,ES-2 [1],13 nM
same,EC50,LX-2,10 nM
CCOC(=O)c1ccc(NC2CCCCC2)c(N)c1,EC50,ES-2 [1],70.1 nM
same,inhibition,ES-2 [2],inactive
same,inhibition,HT-29,inactive
same,inhibition,THP-1,inactive
same,EC50,LX-2,67 nM
same,inhibition,ES-2 [3],inactive
c1ccc(-c2noc(-c3cccc4nc5ccccc5nc34)n2)nc1,EC50,ES-2 [1],131 nM
Fc1ccc(-c2noc(-c3cccc4nc5ccccc5nc34)n2)cc1,EC50,ES-2 [1],2 nM
same,EC50,LX-2,2 nM
c1ccc2nc3c(-c4nc(C5CC5)no4)cccc3nc2c1,EC50,ES-2 [1],214 nM
Cc1ccc(-c2noc(-c3cccc4nc5ccccc5nc34)n2)cc1,EC50,ES-2 [1],130 nM
same,EC50,LX-2,2 nM
FC(F)(F)Oc1cccc(-c2noc(-c3cccc4nc5ccccc5nc34)n2)c1,EC50,ES-2 [1],6 nM
same,EC50,LX-2,14 nM
CC(C)(C)c1ccc(-c2noc(-c3cccc4nc5ccccc5nc34)n2)cc1,EC50,ES-2 [1],11 nM
same,EC50,LX-2,13 nM
c1ccc2nc3ccccc3nc2c1 [PHENAZINE],EC50,ES-2 [1],2820 nM
Fc1cccc(-c2noc(-c3cccc4nc5ccccc5nc34)n2)c1,EC50,ES-2 [1],2 nM
same,EC50,LX-2,2 nM
FC(F)(F)c1ccccc1-c1noc(-c2cccc3nc4ccccc4nc23)n1,EC50,ES-2 [1],39 nM
same,EC50,LX-2,15 nM
Fc1ccccc1-c1noc(-c2cccc3nc4ccccc4nc23)n1,EC50,ES-2 [1],5 nM
same,EC50,LX-2,1 nM
Brc1cccc(-c2noc(-c3cccc4nc5ccccc5nc34)n2)c1,EC50,ES-2 [1],2 nM
same,EC50,LX-2,6 nM
FC(F)(F)c1ccc(-c2noc(-c3cccc4nc5ccccc5nc34)n2)cc1,EC50,ES-2 [1],3 nM
same,EC50,LX-2,32 nM
c1ccc2nc3c(-c4nc(-c5nccs5)no4)cccc3nc2c1,EC50,ES-2 [1],6 nM
CCOc1ccccc1-c1noc(-c2cccc3nc4ccccc4nc23)n1,EC50,ES-2 [1],23 nM
same,EC50,LX-2,10 nM
c1ccc(-c2noc(-c3cccc4nc5ccccc5nc34)n2)cc1,EC50,ES-2 [1],4 nM
COc1ccccc1-c1noc(-c2cccc3nc4ccccc4nc23)n1,EC50,ES-2 [1],13 nM
same,EC50,LX-2,5 nM
CC(C)c1noc(-c2cccc3nc4ccccc4nc23)n1,EC50,ES-2 [1],136 nM
c1ccc2nc3c(-c4nc(-c5ccncc5)no4)cccc3nc2c1,EC50,ES-2 [1],7 nM
c1ccc2nc3c(-c4nc(-n5cccn5)no4)cccc3nc2c1,EC50,ES-2 [1],143 nM
c1cc(CN2CCCCC2)cc(-c2noc(-c3cccc4nc5ccccc5nc34)n2)c1,EC50,ES-2 [1],0.712 nM
same,Activity,[4],inactive
same,Activity,[5],inactive
same,inhibition,ES-2 [2],inactive
same,inhibition,HT-29,inactive
same,inhibition,THP-1,inactive
same,inhibition,ES-2 [6],Active
same,inhibition,ES-2 [7],inactive
same,inhibition,ES-2 [8],Active
same,inhibition,ES-2 [9],inactive
same,inhibition,ES-2 [10],inactive
same,inhibition,ES-2 [11],inactive
same,inhibition,ES-2 [12],inactive
same,inhibition,ES-2 [13],inactive
same,Activity,ES2,inactive
same,inhibition,ES-2 [14],inactive
same,inhibition,ES-2 [15],inactive
same,inhibition,ES-2 [16],inactive
same,inhibition,ES-2 [17],Dose-dependent-effect
same,inhibition,ES-2 [18],Dose-dependent-effect
same,inhibition,ES-2 [19],Active
same,inhibition,ES-2 [20],Active
same,inhibition,ES-2 [21],Active
same,EC50,LX-2,0.925 nM
same,Activity,Mus musculus [22],Active
same,Activity,Mus musculus [23],Active
same,Activity,Mus musculus [24],Active
same,Activity,Mus musculus [25],Active
same,Ratio EC50,[26],1000
CN(C)c1cccc(-c2noc(-c3cccc4nc5ccccc5nc34)n2)c1,EC50,ES-2 [1],1 nM
same,EC50,LX-2,2 nM
CC(C)(C)c1cccc(-c2noc(-c3cccc4nc5ccccc5nc34)n2)c1,EC50,ES-2 [1],3 nM
same,EC50,LX-2,7 nM
Cc1noc(-c2cccc3nc4ccccc4nc23)n1,EC50,ES-2 [1],268 nM
c1ccc2nc3c(-c4nc(-c5ccc(N6CCOCC6)cc5)no4)cccc3nc2c1,EC50,ES-2 [1],1 nM
same,EC50,LX-2,1 nM
c1cncc(-c2noc(-c3cccc4nc5ccccc5nc34)n2)c1,EC50,ES-2 [1],240 nM
Cc1cccc(-c2noc(-c3cccc4nc5ccccc5nc34)n2)c1,EC50,ES-2 [1],7 nM
same,EC50,LX-2,4 nM

# Source: ChEMBL document CHEMBL6096648, “Discovery of phenazine derivatives as a new class of non-classical ferroptosis inhibitors and efficacy evaluation on a mouse model of liver injury” (Eur J Med Chem, 2025)
